Consider one compound from US7700631B2, “Phosphodiesterase 4 inhibitors” (Memory Pharmaceuticals Corporation, priority 2002, dated 2010).

Test [1] has as its system rats. Put plainly: Passive Avoidance in Rats, an in vivo Test for Learning and Memory. The note with it: MK-801 0.1 mg/kg, compared to the vehicle, p<0.001, 24 hours after shock. Also noted: species or system rat. The procedure: The test was performed as previously described (Zhang, H.-T., Crissman, A. M., Dorairaj, N. R., Chandler, L. J., and O'Donnell, J. M., Neuropsychopharmacology, 2000, 23, 198-204.). The apparatus (Model E10-16SC, Coulbourn Instruments, Allentown, Pa.) consisted of a two-compartment chamber with an illuminated compartment connected to a darkened compartment by a guillotine door. The floor of the darkened compartment consisted of stainless steel rods through which an electric foot-shock could be delivered from a constant current source. All experimental groups were first habituated to the apparatus the day before the start of the experiment. During the training, the rat (Male Spraque-Dawley (Harlan) weighing 250 to 350 g) was placed in the illuminated compartment facing away from the closed guillotine door for 1 minute before the door was raised. The latency for entering the darkened compartment was recorded. After the rat entered the darkened compartment, the door was closed and a 0.5 mA electric shock was administered for 3 seconds. […] The latency for entering the darkened compartment was recorded for up to 180 seconds, at which time the trial was terminated.
(§1) All data were analyzed by analyses of variance (ANOVA); individual comparisons were made using Kewman-Keuls tests. […]

For test [2], the system named is rats. In words: Radial Arm Maze Task in Rats, an In Vivo Test for Learning and Memory. The note with it: MK-801 0.1 mg/kg i.p., compared to control, p<0.01. The arrangement: species or system rat. As to the method: The test was performed as previously described (Zhang, H.-T., Crissman, A. M., Dorairaj, N. R., Chandler, L. J., and O'Donnell, J. M., Neuropsychopharmacology, 2000, 23, 198-204.). Five days after initial housing, rats (male Spraque-Dawley (Harlan) weighing 250 to 350 g) were placed in the eight-arm radial maze (each arm was 60×10×12 cm high; the maze was elevated 70 cm above the floor) for acclimation for two days. Rats were then placed individually in the center of the maze for 5 minutes with food pellets placed close to the food wells, and then, the next day, in the wells at the end of the arms; 2 sessions a day were conducted. Next, four randomly selected arms were then baited with one pellet of food each. The rat was restricted to the center platform (26 cm in diameter) for 15 seconds and then allowed to move freely throughout the maze until it collected all pellets of food or 10 minutes passed, whichever came first. Four parameters were recorded: 1) working memory errors, i.e., entries into baited arms that had already been visited during the same trial; 2) reference memory errors, i.e., entries into unbaited arms; 3) total arm entries; and 4) the test duration (seconds), i.e., the time spent in the collection of all the pellets in the maze. […]
as §1

For `C[C@]12N[C@H](Cc3ccccc31)c1ccccc12` [MK-801], the “latency for entering the darkened compartment” value in the test with rats [1] is reported as “markedly reduced this latency”. The “frequencies of working and reference memory errors” value with rats [2] was “increased the frequencies of both working and reference memory errors”.
